Test results reported in patent US4025533A, “5-Bromo-5-nitro-2-alkylsubstituted-1,3-dioxane” (Eli Lilly and Company, priority 1976, dated 1977).
Values after ≈ are worked out from the molar mass of the structure shown.

What was measured:
Pseudomonas aeruginosa [1] = test: agar plate system (Table II); type: cell-based; conditions: antibiotic medium 1, 72 hours at 30° C., read-out: Minimum Inhibitory Concentration
Experimental: (§1) The antimicrobial activities of Compounds A, B, C, D, E and F were also determined in an agar plate system. The compounds were added to melted and cooled (50° C.) agar in twofold concentration increments from 50 mcg per ml of agar to 1.56 mcg per ml of agar. Antibiotic medium 1 [CFR 436.102(1)] was used for testing of Pseudomonas aeruginosa, Staphylococcus aureus, Escherichia coli, and Streptococcus faecalis, but antibiotic medium 22 [CFR 436.102(22)] was used for testing of Candida albicans and Aspergillus niger. Organism suspensions containing 10^6 organisms per ml were used as stock suspensions. Sterile cotton swabs were dipped in the suspensions and then streaked across the solidified agar. The figures shown in Table II were the lowest concentrations at which no growth occurred after 72 hours at 30° C. These values were interpreted as the minimum inhibitory concentration (MIC).

Streptococcus faecalis [2] = test: agar plate system (Table II); type: cell-based; conditions: Enterococcus faecalis, antibiotic medium 1, 72 hours at 30° C., read-out: Minimum Inhibitory Concentration
Experimental: as §1

Candida albicans [3] = test: agar plate system (Table II); type: cell-based; conditions: antibiotic medium 22, 72 hours at 30° C., read-out: Minimum Inhibitory Concentration
Experimental: as §1

Staphylococcus aureus [4] = test: agar plate system (Table II); type: cell-based; conditions: antibiotic medium 1, 72 hours at 30° C., read-out: Minimum Inhibitory Concentration
Experimental: as §1

Escherichia coli [5] = test: agar plate system (Table II); type: cell-based; conditions: antibiotic medium 1, 72 hours at 30° C., read-out: Minimum Inhibitory Concentration
Experimental: as §1

Aspergillus niger [6] = test: agar plate system (Table II); type: cell-based; conditions: antibiotic medium 22, 72 hours at 30° C., read-out: Minimum Inhibitory Concentration
Experimental: as §1

[7] = chemical stability towards pH / alkali; type: physicochemical; conditions: pH 5-9
Pseudomonas aeruginosa [8] = test: conventional tube dilution test (Table I); type: cell-based; conditions: 48 h, antibiotic Number 3 medium, two days at 37° C., read-out: Minimum Inhibitory Concentration
Experimental: (§2) The in vitro antimicrobial activities of Compounds A, B and C, 5-bromo-2-ethyl-5-nitro-1,3-dioxane (Compound D), 5-bromo-5-nitro-2-n-propyl-1,3-dioxane (Compound E), and 5-bromo-2-isopropyl-5-nitro-1,3-dioxane (Compound F) were determined concurrently against Pseudomonas aeruginosa, Staphylococcus aureus, Escherichia coli, and Streptococcus faecalis in a conventional tube dilution test. The medium used was antibiotic Number 3 [CFR 436.102(3)] and the concentration of organisms was 10^4 organisms per ml of medium, with each tube being inoculated with 0.1 ml of inoculum. The figures shown in Table I are the lowest concentrations in mcg of active compound/ml of medium where no growth occurred in the medium after two days' incubation at 37° C.

Streptococcus faecalis [9] = test: conventional tube dilution test (Table I); type: cell-based; conditions: Enterococcus faecalis, 48 h, antibiotic Number 3 medium, two days at 37° C., read-out: Minimum Inhibitory Concentration
Experimental: as §2

Staphylococcus aureus [10] = test: conventional tube dilution test (Table I); type: cell-based; conditions: 48 h, antibiotic Number 3 medium, two days at 37° C., read-out: Minimum Inhibitory Concentration
Experimental: as §2

Escherichia coli [11] = test: conventional tube dilution test (Table I); type: cell-based; conditions: 48 h, antibiotic Number 3 medium, two days at 37° C., read-out: Minimum Inhibitory Concentration
Experimental: as §2

Pseudomonas aeruginosa [12] = test: in vitro agar plate determination (Table VII); type: cell-based; conditions: agar plates at 10, 25 and 50 mcg. per ml., 24 hours, read-out: Minimum Inhibitory Concentration
Experimental: (§3) The antimicrobial activities of […] (Compound G) were determined concurrently with 5-bromo-2-methyl-5-nitro-1,3-dioxane (Compound C) and 5-bromo-5-nitro-1,3-dioxane (Compound B) against the same six organisms shown in Table II. […] The tests were in vitro determinations utilizing agar plates containing the active compound at 10, 25 and 50 mcg. per ml. of agar. The organisms, at concentrations of 10^6 organisms per milliliter, were streaked on the solidified agar. The plates were incubated for 24 hours and the presence or absence of growth noted. The minimum inhibitory concentration (MIC) was determined as the lowest active compound concentration in the agar where no growth occurred.

Streptococcus faecalis [13] = test: in vitro agar plate determination (Table VII); type: cell-based; conditions: Enterococcus faecalis; agar plates at 10, 25 and 50 mcg. per ml., 24 hours; read-out: Minimum Inhibitory Concentration
Experimental: as §3

Candida albicans [14] = test: in vitro agar plate determination (Table VII); type: cell-based; conditions: agar plates at 10, 25 and 50 mcg. per ml., 24 hours, read-out: Minimum Inhibitory Concentration
Experimental: as §3

Staphylococcus aureus [15] = test: in vitro agar plate determination (Table VII); type: cell-based; conditions: agar plates at 10, 25 and 50 mcg. per ml., 24 hours, read-out: Minimum Inhibitory Concentration
Experimental: as §3

Escherichia coli [16] = test: in vitro agar plate determination (Table VII); type: cell-based; conditions: agar plates at 10, 25 and 50 mcg. per ml., 24 hours, read-out: Minimum Inhibitory Concentration
Experimental: as §3

Aspergillus niger [17] = test: in vitro agar plate determination (Table VII); type: cell-based; conditions: agar plates at 10, 25 and 50 mcg. per ml., 24 hours, read-out: Minimum Inhibitory Concentration
Experimental: as §3

Structure (SMILES) | MIC (Pseudomonas aeruginosa [1]) [µg/mL] | MIC (Streptococcus faecalis [2]) [µg/mL] | MIC (Candida albicans [3]) [µg/mL] | MIC (Staphylococcus aureus [4]) [µg/mL] | MIC (Escherichia coli [5]) [µg/mL] | MIC (Aspergillus niger [6]) [µg/mL] | chemical stability at pH [7] | MIC (Pseudomonas aeruginosa [8]) [µg/mL] | MIC (Streptococcus faecalis [9]) [µg/mL] | MIC (Staphylococcus aureus [10]) [µg/mL] | MIC (Escherichia coli [11]) [µg/mL] | MIC (Pseudomonas aeruginosa [12]) [µg/mL] | MIC (Streptococcus faecalis [13]) [µg/mL] | MIC (Candida albicans [14]) [µg/mL] | MIC (Staphylococcus aureus [15]) [µg/mL] | MIC (Escherichia coli [16]) [µg/mL] | MIC (Aspergillus niger [17]) [µg/mL]
CCC1OCC(Br)([N+](=O)[O-])CO1 (centres unmarked) [Compound D, 5-bromo-2-ethyl-5-nitro-1,3-dioxane] | 25 (≈ 104 µM) | 12.5 (≈ 52.1 µM) | 6.25 (≈ 26 µM) | 12.5 (≈ 52.1 µM) | 12.5 (≈ 52.1 µM) | 12.5 (≈ 52.1 µM) | chemically stable at pH's from 5-9 | 50 (≈ 208 µM) | 25 (≈ 104 µM) | 25 (≈ 104 µM) | 25 (≈ 104 µM) |  |  |  |  |  | 
CC1(C)OCC(Br)([N+](=O)[O-])CO1 [Compound G, 5-bromo-2,2-dimethyl-5-nitro-1,3-dioxane] |  |  |  |  |  |  |  |  |  |  |  | 50 (≈ 208 µM) | 25 (≈ 104 µM) | 25 (≈ 104 µM) | 25 (≈ 104 µM) | 25 (≈ 104 µM) | 50 (≈ 208 µM)
